Read-outs that look alike come from different tables or passages of the source.
Assay: logP determined by HPLC
Assay type: physicochemical
[1] = preparation examples, where two values are given they are the stereoisomers of the product mixture, read-out: HPLC: logP
[2] = preparation examples, where two values are given they are the stereoisomers of the product mixture

Row | chromatographic logP [1] | chromatographic logP (E isomer, Example 2 product, read-out: HPLC: logP (E isomer)) | chromatographic logP (HPLC, preparation examples, where two values are given they are the stereoisomers of the product mixture, read-out: HPLC: logP) | HPLC: logP [2] | Compound
1 | 2.88 |  |  |  | CON=C1COc2ccc(C)cc21 [(VI-2), 5-Methylbenzofuran-3-one O-methyl-oxime]
2 |  | 1.24 | 1.22 |  | CO/N=C(/C1=NOCCO1)c1ccccc1O [Compound (I-1), E-(5,6-dihydro-[1,4,2]dioxazin-3-yl)-(2-hydroxy-phenyl)-methanone O-methyl-oxime]
3 | 1.65 |  |  | 1.79 | CON=C1C(=NOCCO)Oc2ccccc21 [Compound (II-1), benzofuran-2,3-dione 2-[O-(2-hydroxy-ethyl)-oxime]3-(O-methyl-oxime)]
4 | 1.56 |  |  | 1.72 | CON=C1C(=NO)Oc2ccccc21 [Compound (III-1), benzofuran-2,3-dione 3-(O-methyl-oxime) 2-oxime]
5 | 1.87 |  |  |  | CON=C(C[N+](=O)[O-])c1ccccc1O [Compound (V-1), 1-(2-hydroxyphenyl)-2-nitro-ethanone O-methyl-oxime]
